Test results as given in PubChem BioAssay (NCI).
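Where inhibition never reached the appropriate level, the endpoint shown equals the highest concentration tested. Otherwise, values were interpolated linearly from a five-concentration, 48-hour dose response in 96-well plates. GI50 marks 50% less growth. TGI is the concentration that stops growth completely.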

Experiments:
Assay in all cases: inhibition of tumour cell growth, NCI panel, 48 h
[1] = system: 786-0 renal
[2] = system: A549 NSCLC
[3] = system: HOP-62 NSCLC
[4] = system: HT29 colon
[5] = system: LOX IMVI melanoma
[6] = system: MDA-MB-231 breast
[7] = system: NCI-H522 lung
[8] = system: SF-539 CNS
[9] = system: SK-MEL-5 melanoma
[10] = system: SNB-19 CNS

SMILES	TGI [1]	TGI [2]	TGI [3]	TGI [4]	TGI [5]	TGI [6]	TGI [7]	TGI [8]	TGI [9]	TGI [10]	GI50 [5]
Clc1cc(OCC23CC4CC(CC(C4)C2)C3)nc(OCC23CC4CC(CC(C4)C2)C3)n1	> 100 µM	> 100 µM	> 100 µM	> 100 µM	> 100 µM	> 100 µM	> 100 µM	> 100 µM	> 100 µM	> 100 µM	
COP(=O)(OC)c1ccc(NCc2cc(O)ccc2O)cc1	58.1 µM	> 100 µM	> 84.7 µM	56.3 µM	> 75.4 µM	> 57.8 µM	> 71.8 µM	46.1 µM	47.2 µM	> 100 µM	
COc1cc([C@@H]2c3cc4c(cc3[C@@H](N=Cc3ccc(C(=O)O[C@@H](C(=O)O[C@H]5C[C@@]6(O)[C@@H](OC(=O)c7ccccc7)[C@@H]7[C@]8(OC(C)=O)CO[C@@H]8C[C@H](O)[C@@]7(C)C(=O)[C@H](OC(C)=O)C(=C5C)C6(C)C)[C@@H](NC(=O)c5ccccc5)c5ccccc5)cc3)[C@H]3COC(=O)[C@H]23)OCO4)cc(OC)c1O	> 50 µM	> 50 µM	> 50 µM	1.92 µM	> 50 µM	> 13.9 µM	> 50 µM	1.47 µM	> 50 µM	> 50 µM	
O=C1c2ccccc2-c2nnc(-c3ccc(Cl)cc3)cc21	> 10 µM	> 10 µM	> 10 µM	> 10 µM	> 10 µM	> 10 µM	> 10 µM	> 10 µM	> 10 µM	> 10 µM	
O=C(Cn1c(=O)oc2ccc(C(=O)c3ccccc3Cl)cc21)c1ccc([N+](=O)[O-])cc1	> 100 µM	> 100 µM	> 100 µM	> 100 µM	30.9 µM	79.7 µM	39.9 µM	65.9 µM	40.5 µM	> 100 µM	
COc1cc(O)c2c(=O)c(OC)c(-c3ccc4c(c3)OCO4)oc2c1OC	> 50 µM	> 50 µM	> 50 µM	> 50 µM	> 50 µM	> 50 µM	> 50 µM	> 50 µM	> 50 µM	> 50 µM	
CC(C)(C)OC(=O)N1Cc2cc(O)ccc2C[C@H]1C(=O)O	> 100 µM	> 100 µM	> 100 µM	> 100 µM	> 100 µM	> 100 µM	> 100 µM	> 100 µM	> 100 µM	> 100 µM	
CCCCCCCCCCCCCCCCCCOc1ccc(/C=C/C2=[N+](CCCl)CCO2)cc1	> 100 µM	> 100 µM	> 100 µM	> 100 µM	> 100 µM	> 100 µM	> 100 µM	> 100 µM	> 100 µM	> 100 µM	
O=[N+]([O-])c1ccc2nc(/C=C(\O)c3ccccc3)c(/C=C(\O)c3ccccc3)nc2c1	44.3 µM	> 58.5 µM	35.2 µM	> 100 µM	21.3 µM	39.4 µM	38.7 µM	22.8 µM	> 39.2 µM	> 100 µM	7.18 µM
COc1ccc(/C=N\NC(=O)Nc2cccc3ccccc23)cc1	46.6 µM	> 100 µM	26.5 µM	> 100 µM	> 100 µM	44.4 µM	> 100 µM	33.3 µM	> 100 µM	36.8 µM	
Cc1oncc1NC1=CC(=O)C(=O)c2ccccc21	32.2 µM	15.7 µM	36.8 µM	11.6 µM	10.5 µM	32.8 µM	19.2 µM	15.1 µM	3.68 µM	46.8 µM	
CCOC(=O)C1=CC(C)(C(=O)OCC)Nc2c(nc(SC)n(C)c2=O)N1 (stereo unspecified)	> 10 µM	> 10 µM	> 10 µM	> 10 µM	> 10 µM	> 10 µM	> 10 µM	> 10 µM	> 10 µM	> 10 µM	
CNC(=O)c1ccccc1[S+]1c2cccc3cccc(c23)C(=O)N1C (stereo unspecified)	> 100 µM	> 100 µM	> 100 µM	> 100 µM	> 100 µM	> 100 µM	> 100 µM	> 100 µM	> 100 µM	> 100 µM	
CSC1(SC)N2Cc3ccccc3N=C2C1(c1ccccc1)c1ccccc1	> 100 µM	> 100 µM	> 100 µM	> 100 µM	44.4 µM	> 100 µM	29.4 µM	31.6 µM	28.8 µM	> 100 µM	
NNC(=O)CCC(NS(=O)(=O)c1ccc(Cl)cc1)C(=O)NN (stereo unspecified)	> 100 µM	> 100 µM	> 100 µM	> 100 µM	> 100 µM	> 100 µM	> 100 µM	> 100 µM	> 100 µM	> 100 µM	
COC12OC3CC4(C)C(=CC3OC(OC(C)C1O)C2O)CCC1C4CCC2(C)C(c3ccc(=O)oc3)CCC12O (stereo unspecified)	0.00195 µM	0.00166 µM	0.00311 µM	0.00277 µM	0.00281 µM	0.00792 µM	< 0.001 µM	0.00167 µM	0.00171 µM	0.00455 µM	
Cn1c(N=[N+]=[N-])cc(=O)n(C)c1=O	> 100 µM	> 100 µM	> 100 µM	> 100 µM	> 100 µM	> 100 µM	> 100 µM	> 100 µM	> 100 µM	> 100 µM	

SMILES	TGI [1]	TGI [2]	TGI [3]	TGI [4]	TGI [5]	TGI [6]	TGI [7]	TGI [8]	TGI [9]	TGI [10]	GI50 [5]
CN(C)CCCNc1cnc2cc3ccccc3cc2n1	> 100 µM	> 100 µM	> 100 µM	30.5 µM	35.7 µM	41.4 µM	55.5 µM	68.8 µM	45 µM	> 100 µM	
Clc1ccc2nc(CC3CCCC3)[nH]c2c1	33.4 µM	60.8 µM	32.7 µM	33.5 µM	29.9 µM	43.6 µM	21.2 µM	51.7 µM	24.9 µM	64 µM	
COc1ccc(S(=O)(=O)Nc2ccc(-c3csc(N4C(=O)/C(=C/c5ccccc5)N=C4c4ccccc4)n3)cc2)cc1Cl	> 100 µM	> 100 µM	> 100 µM	> 100 µM	> 100 µM	46.2 µM	> 100 µM	> 100 µM	> 100 µM	> 100 µM	
COc1nc2ccc(CNc3ccc(C(=O)O)cc3)cc2nc1OC	> 10 µM	> 10 µM	> 10 µM	> 10 µM	> 10 µM	> 10 µM	> 10 µM	> 10 µM	> 10 µM	> 10 µM	
COc1ccc(N2C(N)=C(C#N)C(C#N)(C#N)C2c2cccc([N+](=O)[O-])c2)cc1 (stereo unspecified)	29.1 µM	34.2 µM	30.9 µM	29.1 µM	27.6 µM	29.1 µM	20.7 µM	28.9 µM	27.4 µM	32.5 µM	
COc1ccc(-c2nnc(-c3ccncc3)o2)cc1	> 100 µM	> 100 µM	> 100 µM	> 100 µM	> 100 µM	> 100 µM	> 100 µM	> 100 µM	> 100 µM	> 100 µM	
CCNc1cc2c3c(c1)CCCN3CCC2	26 µM	35.9 µM	28.4 µM	21.6 µM	13.5 µM	22.4 µM	62.7 µM	40.5 µM	28.2 µM	33 µM	
CCCCC1(N=[N+]=[N-])C(=O)C2C=CC=C3c4ccccc4N(C1=O)C32 (stereo unspecified)	> 31.6 µM	> 31.6 µM	> 31.6 µM	25.8 µM	> 31.6 µM	> 31.6 µM	25.1 µM	> 31.6 µM	> 31.6 µM	> 31.6 µM	
CC(C)(C)c1cc(/C=C/C(=O)CC(=O)/C=C/c2cc(C(C)(C)C)c(O)c(C(C)(C)C)c2)cc(C(C)(C)C)c1O	> 50 µM	> 50 µM	> 50 µM	> 50 µM	> 50 µM	> 50 µM	> 50 µM	> 50 µM	> 50 µM	> 50 µM	
COC(=O)C(Cc1ccccc1)NC(=O)c1ccc(CNC(=S)NCc2cccc(CNC(=S)NCc3ccccc3)c2)cc1 (stereo unspecified)	> 62.5 µM	> 62.5 µM	> 62.5 µM	> 62.5 µM	> 62.5 µM	> 62.5 µM	> 62.5 µM	> 62.5 µM	> 62.5 µM	> 62.5 µM	
N#CCOc1cccc(C2(N3CC=CCC3)CCCCC2)c1	> 100 µM	> 100 µM	> 100 µM	> 100 µM	> 100 µM	> 100 µM	> 100 µM	> 100 µM	> 100 µM	> 100 µM	
CC1(C)O[C@H]2OC(CO)C(OS(C)(=O)=O)[C@H]2O1 (stereo partly specified)	> 100 µM	> 100 µM	> 100 µM	> 100 µM	> 100 µM	> 100 µM	> 100 µM	> 100 µM	> 100 µM	> 100 µM	
Cc1nc2c(Cl)cc(Cl)cc2c(Cl)c1CCCl	> 100 µM	> 100 µM	> 100 µM	> 100 µM	> 100 µM	> 100 µM	> 100 µM	> 100 µM	> 100 µM	> 100 µM	
CN(C)CCNC(=O)c1cccc2[nH]c(-c3ccncc3)nc12	4.15 µM	> 44.9 µM	52.8 µM	7.27 µM	1.81 µM	9.74 µM	3.97 µM	6.82 µM	7.27 µM	> 63.2 µM	
COc1ccc(NCc2cnc3nc(N)nc(N)c3c2C)cc1	> 100 µM	> 100 µM	> 100 µM	> 100 µM	> 100 µM	0.962 µM	> 100 µM	> 100 µM	> 100 µM	> 100 µM	
CCCCCC(O)(CCCCC)CCCCCCCCC1=C(O)c2ccccc2C(=O)C1=O	30.5 µM	> 53.6 µM	25.6 µM	27.9 µM	18 µM	32 µM	67.9 µM	27.5 µM	14.5 µM	24.9 µM	
COc1cc(/C=C2\N=C(C)N(n3c(-c4ccccc4)nc4ccccc4c3=O)C2=O)cc(OC)c1OC	> 100 µM	> 100 µM	> 100 µM	> 100 µM	> 100 µM	> 100 µM	> 100 µM	> 100 µM	> 100 µM	> 100 µM	
